{"source": "patent US20200308170A1", "about": "“KRAS G12C INHIBITORS” (Mirati Therapeutics, Inc., priority 2017, published 2020)", "data": [{"biological_target": "KRas G12C (Homo sapiens, UniProt P01116, G12C)", "sequence (P01116 1-188 isoform P01116-2 G12C)": "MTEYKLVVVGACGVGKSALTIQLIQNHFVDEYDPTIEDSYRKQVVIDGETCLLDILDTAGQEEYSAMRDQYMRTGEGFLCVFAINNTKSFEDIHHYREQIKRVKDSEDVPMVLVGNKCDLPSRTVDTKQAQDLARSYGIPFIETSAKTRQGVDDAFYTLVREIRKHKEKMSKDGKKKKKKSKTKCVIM", "assay": "Inhibition of KRas G12C in NCI-H358 cells measured by phosphorylated ERK (Phospho-ERK)", "format": "cell-based", "settings": "3 hours, 4 parameter fit, read-out: IC50 (pERK(Thr202/Tyr204) signal normalized with GAPDH)", "method": "Cells were plated in poly-D-Lysine coated 96-well plates at a concentration of 50,000 cells/well and allowed to attach for 8-12 hours. Diluted compounds were then added at a final concentration of 0.5% DMSO. After 3 hours, the medium was removed, 150 μL of 4% formaldehyde was added and the plates were incubated for 20 minutes. The plates were washed with PBS, and permeabilized using 150 μL of ice cold 100% methanol for 10 minutes. Non-specific antibody binding to the plates was blocked using 100 μL Licor Blocking Buffer (Li-Cor Biotechnology, Lincoln Nebr.) for 1 hour at room temperature. Positive control samples and samples lacking cells were parallel processed with test samples as standards.\nThe amount Phospho-ERK was determined using an antibody specific for the phosphorylated form of ERK and compared to the amount of GAPDH. […] The plates were incubated for 2 hours at room temperature. The plates were washed with PBS+0.05% Tween 20.\nSecondary antibodies used to visualize primary antibodies were added as follows: Anti-rabbit-680 diluted 1:1000 and Anti-mouse-800 diluted 1:1000 in Licor Block+0.05% Tween 20 and incubated for 1 hour at room temperature. The plates were washed with PBS+0.05% Tween 20. A 100 μL aliquot of PBS was added to each well and the plates were read on a LICOR AERIUS plate reader.\nThe pERK(Thr202/Tyr204) signal was normalized with the GAPDH signal and percent of DMSO control values were calculated. IC50 values were generated using a 4 parameter fit of the dose response curve.", "units": {"IC50": "nM"}, "values": [{"smiles": "C=C(F)C(=O)N1CCN(c2nc(OCCN3CCCCCC3)nc3c2CCN(c2cccc4ccc(F)c(Cl)c24)C3)C[C@@H]1CC#N", "note": "[Example 165]", "IC50": "0.1 to 1000"}, {"smiles": "C=C(F)C(=O)N1CCN(c2nc(OCC34CCC(CC3)CN4C)nc3c2CCN(c2cccc4ccc(F)c(Cl)c24)C3)C[C@@H]1CC#N", "note": "[Example 166]", "IC50": "0.1 to 1000"}, {"smiles": "C=C(F)C(=O)N1CCN(c2nc(OC[C@@H]3COCCN3Cc3ccccc3)nc3c2CCN(c2cccc4ccc(F)c(Cl)c24)C3)C[C@@H]1CC#N", "note": "[Example 167]", "IC50": "0.1 to 1000"}, {"smiles": "C=C(F)C(=O)N1CCN(c2nc(OC3CN(C)C3)nc3c2CCN(c2cccc4ccc(F)c(Cl)c24)C3)C[C@@H]1CC#N", "note": "[Example 168]", "IC50": "1000 to 10000"}, {"smiles": "C=C(F)C(=O)N1CCN(c2nc(OC[C@@H]3CC(F)(F)CN3C)nc3c2CCN(c2cccc4ccc(F)c(Cl)c24)C3)C[C@@H]1CC#N", "note": "[Example 169]", "IC50": "0.1 to 1000"}, {"smiles": "C=C(F)C(=O)N1CCN(c2nc(OC[C@@H]3C[C@@H](OC)CN3C)nc3c2CCN(c2cccc4ccc(F)c(Cl)c24)C3)C[C@@H]1CC#N", "note": "[Example 170]", "IC50": "0.1 to 1000"}, {"smiles": "C=C(F)C(=O)N1CCN(c2nc(OCC34CCC(CC3)N4C)nc3c2CCN(c2cccc4ccc(F)c(Cl)c24)C3)C[C@@H]1CC#N", "note": "[Example 171]", "IC50": "0.1 to 1000"}, {"smiles": "C=C(F)C(=O)N1CCN(c2nc(OC[C@@H]3C[C@@H](F)CN3C)nc3c2CCN(c2cccc4ccc(F)c(Cl)c24)C3)C[C@@H]1CC#N", "note": "[Example 172]", "IC50": "0.1 to 1000"}, {"smiles": "C=C(F)C(=O)N1CCN(c2nc(OCC3CN(C)C3)nc3c2CCN(c2cccc4ccc(F)c(Cl)c24)C3)C[C@@H]1CC#N", "note": "[Example 173]", "IC50": "0.1 to 1000"}, {"smiles": "C=C(F)C(=O)N1CCN(c2nc(OCC34CCCN3CC(F)(F)C4)nc3c2CCN(c2cccc4ccc(F)c(Cl)c24)C3)C[C@@H]1CC#N", "note": "(stereo partly drawn) [Example 174]", "IC50": "0.1 to 1000"}, {"smiles": "C=C(F)C(=O)N1CCN(c2nc(OCC3(CC)CCCN3C)nc3c2CCN(c2cccc4ccc(F)c(Cl)c24)C3)C[C@@H]1CC#N", "note": "(stereo partly drawn) [Example 175]", "IC50": "0.1 to 1000"}, {"smiles": "C=C(F)C(=O)N1CCN(c2nc(OCC3CCCO3)nc3c2CCN(c2cccc4ccc(F)c(Cl)c24)C3)C[C@@H]1CC#N", "note": "(stereo partly drawn) [Example 176]", "IC50": "0.1 to 1000"}, {"smiles": "C=C(F)C(=O)N1CCN(c2nc(OCC(C)N3CCOCC3)nc3c2CCN(c2cccc4ccc(F)c(Cl)c24)C3)C[C@@H]1CC#N", "note": "(stereo partly drawn) [Example 177]", "IC50": "0.1 to 1000"}, {"smiles": "C=C(F)C(=O)N1CCN(c2nc(OCC3CCN3C(C)C)nc3c2CCN(c2cccc4ccc(F)c(Cl)c24)C3)C[C@@H]1CC#N", "note": "(stereo partly drawn) [Example 178]", "IC50": "0.1 to 1000"}, {"smiles": "C=C(F)C(=O)N1CCN(c2nc(OCC3CCN3CC)nc3c2CCN(c2cccc4ccc(F)c(Cl)c24)C3)C[C@@H]1CC#N", "note": "(stereo partly drawn) [Example 179]", "IC50": "0.1 to 1000"}, {"smiles": "C=C(F)C(=O)N1CCN(c2nc(OC[C@@H]3CC4CCN3C4)nc3c2CCN(c2cccc4ccc(F)c(Cl)c24)C3)C[C@@H]1CC#N", "note": "(stereo partly drawn) [Example 180]", "IC50": "0.1 to 1000"}, {"smiles": "C=C(F)C(=O)N1CCN(c2nc(OC[C@@H]3C[C@@H](OC)CN3C(C)C)nc3c2CCN(c2cccc4ccc(F)c(Cl)c24)C3)C[C@@H]1CC#N", "note": "[Example 181]", "IC50": "0.1 to 1000"}, {"smiles": "C=C(F)C(=O)N1CCN(c2nc(O[C@@H]3CCCC[C@H]3N(C)C)nc3c2CCN(c2cccc4ccc(F)c(Cl)c24)C3)C[C@@H]1CC#N", "note": "[Example 182]", "IC50": "1000 to 10000"}, {"smiles": "C=C(F)C(=O)N1CCN(c2nc(OC[C@@H]3C[C@@H](F)CN3C(C)C)nc3c2CCN(c2cccc4ccc(F)c(Cl)c24)C3)C[C@@H]1CC#N", "note": "[Example 183]", "IC50": "0.1 to 1000"}, {"smiles": "C=C(F)C(=O)N1CCN(c2nc(OCC34CCCN3CC3(CC3)C4)nc3c2CCN(c2cccc4ccc(F)c(Cl)c24)C3)C[C@@H]1CC#N", "note": "(stereo partly drawn) [Example 184]", "IC50": "0.1 to 1000"}, {"smiles": "C=C(F)C(=O)N1CCN(c2nc(OC[C@@H]3CCCN3CC)nc3c2CCN(c2cccc4ccc(F)c(Cl)c24)C3)C[C@@H]1CC#N", "note": "[Example 185]", "IC50": "0.1 to 1000"}, {"smiles": "C=C(F)C(=O)N1CCN(c2nc(OCC34CCCN3C(C)CC4)nc3c2CCN(c2cccc4ccc(F)c(Cl)c24)C3)C[C@@H]1CC#N", "note": "(stereo partly drawn) [Example 186]", "IC50": "0.1 to 1000"}, {"smiles": "C=C(F)C(=O)N1CCN(c2nc(OCC3N(C)CC3(C)C)nc3c2CCN(c2cccc4ccc(F)c(Cl)c24)C3)C[C@@H]1CC#N", "note": "(stereo partly drawn) [Example 187]", "IC50": "0.1 to 1000"}, {"smiles": "C=C(F)C(=O)N1CCN(c2nc(OCC34CC(N(C)C)(C3)C4)nc3c2CCN(c2cccc4ccc(F)c(Cl)c24)C3)C[C@@H]1CC#N", "note": "[Example 188]", "IC50": "0.1 to 1000"}, {"smiles": "C=C(F)C(=O)N1CCN(c2nc(OCC3CCOC3)nc3c2CCN(c2cccc4ccc(F)c(Cl)c24)C3)C[C@@H]1CC#N", "note": "(stereo partly drawn) [Example 189]", "IC50": "1000 to 10000"}, {"smiles": "C=C(F)C(=O)N1CCN(c2nc(OC[C@@H]3[C@@H]4CC[C@@H](C4)N3C)nc3c2CCN(c2cccc4ccc(F)c(Cl)c24)C3)C[C@@H]1CC#N", "note": "[Example 190]", "IC50": "0.1 to 1000"}, {"smiles": "C=C(F)C(=O)N1CCN(c2nc(OCCc3nccn3C)nc3c2CCN(c2cccc4ccc(F)c(Cl)c24)C3)C[C@@H]1CC#N", "note": "[Example 191]", "IC50": "0.1 to 1000"}, {"smiles": "C=C(F)C(=O)N1CCN(c2nc(OCC(C)C(F)F)nc3c2CCN(c2cccc4ccc(F)c(Cl)c24)C3)C[C@@H]1CC#N", "note": "(stereo partly drawn) [Example 192]", "IC50": "1000 to 10000"}, {"smiles": "C=C(F)C(=O)N1CCN(c2nc(OCCN3C[C@@H]4CC3CO4)nc3c2CCN(c2cccc4ccc(F)c(Cl)c24)C3)C[C@@H]1CC#N", "note": "[Example 193]", "IC50": "0.1 to 1000"}, {"smiles": "C=C(F)C(=O)N1CCN(c2nc(OC[C@H]3CN(C)CCO3)nc3c2CCN(c2cccc4ccc(F)c(Cl)c24)C3)C[C@@H]1CC#N", "note": "[Example 195]", "IC50": "0.1 to 1000"}, {"smiles": "C=C(F)C(=O)N1CCN(c2nc(OC[C@@H]3CCCN3C3CCC3)nc3c2CCN(c2cccc4ccc(F)c(Cl)c24)C3)C[C@@H]1CC#N", "note": "[Example 196]", "IC50": "0.1 to 1000"}, {"smiles": "C=C(F)C(=O)N1CCN(c2nc(OCC3COC3)nc3c2CCN(c2cccc4ccc(F)c(Cl)c24)C3)C[C@@H]1CC#N", "note": "[Example 197]", "IC50": "0.1 to 1000"}, {"smiles": "C=C(F)C(=O)N1CCN(c2nc(OCCCN3C[C@@H]4C[C@H]3CO4)nc3c2CCN(c2cccc4ccc(F)c(Cl)c24)C3)C[C@@H]1CC#N", "note": "[Example 198]", "IC50": "0.1 to 1000"}, {"smiles": "C=C(F)C(=O)N1CCN(c2nc(OCC3CCC(C)(C)N3C)nc3c2CCN(c2cccc4ccc(F)c(Cl)c24)C3)C[C@@H]1CC#N", "note": "(stereo partly drawn) [Example 199]", "IC50": "0.1 to 1000"}, {"smiles": "C=C(F)C(=O)N1CCN(c2nc(OCCNCC(F)(F)F)nc3c2CCN(c2cccc4ccc(F)c(Cl)c24)C3)C[C@@H]1CC#N", "note": "[Example 200]", "IC50": "0.1 to 1000"}, {"smiles": "C=C(F)C(=O)N1CCN(c2nc(OCC3COCCO3)nc3c2CCN(c2cccc4ccc(F)c(Cl)c24)C3)C[C@@H]1CC#N", "note": "(stereo partly drawn) [Example 201]", "IC50": "0.1 to 1000"}, {"smiles": "COC/C=C(\\F)C(=O)N1CCN(c2nc(OCC34CCCN3CCC4)nc3c2CCN(c2cccc4ccc(F)c(Cl)c24)C3)C[C@@H]1CC#N", "note": "[Example 206, (S, Z)-2-(4-(7-(8-chloro-7-fluoronaphthalen-1-yl)-2-((tetrahydro-1H-pyrrolizin-7a(5H)-yl)methoxy)-5,6,7,8-tetrahydropyrido[3,4-d]pyrimidin-4-yl)-1-(2-fluoro-4-methoxybut-2-enoyl)piperazin-2-yl)acetonitrile]", "IC50": "0.1 to 1000"}, {"smiles": "N#CC[C@H]1CN(c2nc(OCC34CCCN3CCC4)nc3c2CCN(c2cccc4ccc(F)c(Cl)c24)C3)CCN1C(=O)/C(F)=C/CF", "note": "[Example 207, (S, Z)-2-(4-(7-(8-chloro-7-fluoronaphthalen-1-yl)-2-((tetrahydro-1H-pyrrolizin-7a(5H)-yl)methoxy)-5,6,7,8-tetrahydropyrido[3,4-d]pyrimidin-4-yl)-1-(2,4-difluorobut-2-enoyl)piperazin-2-yl)acetonitrile]", "IC50": "0.1 to 1000"}, {"smiles": "C=C(F)C(=O)N1CCN(c2nc(OC[C@@H]3CC(F)(F)CN3)nc3c2CCN(c2cccc4ccc(F)c(Cl)c24)C3)C[C@@H]1CC#N", "note": "[Example 208, 2-((S)-4-(7-(8-chloro-7-fluoronaphthalen-1-yl)-2-(((S)-4,4-difluoropyrrolidin-2-yl)methoxy)-5,6,7,8-tetrahydropyrido[3,4-d]pyrimidin-4-yl)-1-(2-fluoroacryloyl)piperazin-2-yl)acetonitrile]", "IC50": "0.1 to 1000"}, {"smiles": "C=C(F)C(=O)N1CCN(c2nc(OC[C@@H]3C[C@@H](F)CN3)nc3c2CCN(c2cccc4ccc(F)c(Cl)c24)C3)C[C@@H]1CC#N", "note": "[Example 209, 2-((S)-4-(7-(8-chloro-7-fluoronaphthalen-1-yl)-2-(((2S,4R)-4-fluoropyrrolidin-2-yl)methoxy)-5,6,7,8-tetrahydropyrido[3,4-d]pyrimidin-4-yl)-1-(2-fluoroacryloyl)piperazin-2-yl)acetonitrile]", "IC50": "0.1 to 1000"}, {"smiles": "C=C(F)C(=O)N1CCN(c2nc(OC[C@@H]3C[C@@H](OC)CN3)nc3c2CCN(c2cccc4ccc(F)c(Cl)c24)C3)C[C@@H]1CC#N", "note": "[Example 210, 2-((S)-4-(7-(8-chloro-7-fluoronaphthalen-1-yl)-2-(((2S,4R)-4-methoxypyrrolidin-2-yl)methoxy)-5,6,7,8-tetrahydropyrido[3,4-d]pyrimidin-4-yl)-1-(2-fluoroacryloyl)piperazin-2-yl)acetonitrile]", "IC50": "0.1 to 1000"}, {"smiles": "C=C(F)C(=O)N1CCN(c2nc(OCCNCC(F)F)nc3c2CCN(c2cccc4ccc(F)c(Cl)c24)C3)C[C@@H]1CC#N", "note": "[Example 211, (S)-2-(4-(7-(8-chloro-7-fluoronaphthalen-1-yl)-2-(2-((2,2-difluoroethyl)amino)ethoxy)-5,6,7,8-tetrahydropyrido[3,4-d]pyrimidin-4-yl)-1-(2-fluoroacryloyl)piperazin-2-yl)acetonitrile]", "IC50": "0.1 to 1000"}]}]}
